These results are taken from US6451834B1, “Indeno[1,2-c]-, naphtho[1,2-c]- and benzo[6,7]cyclohepta[1,2-c]pyrazole derivatives” (BASF Aktiengesellschaft, priority 1997, dated 2002).

The target of data set [1] is T1, KDR tyrosine kinase (Homo sapiens, UniProt P35968).
T1 construct: KDR intra-cellular domain (aa789-1354); poly-His6 (N); made in house; host or cells: SF-9 insect cells, recombinant baculovirus (pVL1393)
In words: KDR in vitro ELISA. In kind it is biochemical. Conditions: ATP 5 μM. (In an ELISA, binding on a coated surface is turned into a signal by an enzyme label.)
Procedure: The following procedure was used to assay the inhibitory effect of compounds of this invention on KDR tyrosine kinase activity:
Dilute PGT stock (50 mg/ml, frozen) in PBS to a 250 μg/ml. […] Add 125 μl PBS to blank wells. Cover with sealing tape and incubate overnight 37° C. Wash 1× with 250 μl washing buffer and dry for about 2 hrs in 37° C. dry incubator.
Prepare inhibitor solutions at a 4× concentration in 20% DMSO in water.
Prepare enzyme solution so that desired units are in 50 μl, e.g. for KDR make to 1 ng/μl for a total of 50 ng per well in the reactions. Store on ice.
Make 4× ATP solution to 20 μM from 100 mM stock in water. Store on ice.
Add 50 μl of the enzyme solution per well.
Add 25 μl 4× ATP for inhibitor assay.
Incubate for 10 minutes at room temperature.
Stop reaction by adding 50 μl 0.05N HCl per well.
Dilute 1 mg/ml aliquot of PY20-HRP (Pierce) antibody to 50 ng/ml in 0.1% BSA in PBS by a 2 step dilution (100×, then 200×).
Add 100 μl Ab per well. Incubate 1 hr at room temp. Incubate 1 hr at 4C.
Prepare TMB substrate and add 100 μl per well.
Monitor OD at 650 nm until 0.6 is reached.
Stop with 1M Phosphoric acid. Shake on plate reader.

The test system of data set [2] is Human umbilical vein endothelial cells (HUVEC). The data set can be described thus: HUVEC mitogenesis assay. In kind it is cell-based. As to conditions: 50 ng/ml VEGF, tritiated thymidine, read-out: VEGF-Stimulated Mitogenesis IC50. How it is done:
Human umbilical vein endothelial cells (HUVEC) were cultured in EGM-Complete Media (endothelial growth media supplemented with 10% FBS, hydrocortisone, epidermal growth factor and bovine brain extract as per the supplier's directions). Cells, media and supplements were purchased from Clonetics (San Diego, Calif.). The HUVEC Mitogenesis Assay was used to measure inhibition of mitogenesis induced by VEGF, FGF or Complete Media. Cells were harvested by trypsinization, washed once and suspended in Complete Media (CM) at a concentration of 5,000 cells/0.15 ml. Cells were seeded into 96-well plates at 5,000 cells/well and incubated at 37 C for 24 hours. Cells were washed once with serum-free media (SFM) and incubated under serum-free conditions for 24 hours. Non-serum starved control wells were cultured with CM during this period. Test compounds were prepared as 10 mM stock solutions in DMSO, diluted in SFM and added to wells over a concentration range (0.005-50 μM final concentration). Cells were incubated for 1 hour prior to addition of 50 ng/ml VEGF or FGF (R & D Systems, Minneapolis, Minn.). Complete media stimulated wells received the test compound and stimulus simultaneously. […] Plates were harvested onto filter mats with a Tomtec Harvester and counted with a Betaplate liquid scintillation counter (Wallac).

T1 sequence (P35968 789-1354): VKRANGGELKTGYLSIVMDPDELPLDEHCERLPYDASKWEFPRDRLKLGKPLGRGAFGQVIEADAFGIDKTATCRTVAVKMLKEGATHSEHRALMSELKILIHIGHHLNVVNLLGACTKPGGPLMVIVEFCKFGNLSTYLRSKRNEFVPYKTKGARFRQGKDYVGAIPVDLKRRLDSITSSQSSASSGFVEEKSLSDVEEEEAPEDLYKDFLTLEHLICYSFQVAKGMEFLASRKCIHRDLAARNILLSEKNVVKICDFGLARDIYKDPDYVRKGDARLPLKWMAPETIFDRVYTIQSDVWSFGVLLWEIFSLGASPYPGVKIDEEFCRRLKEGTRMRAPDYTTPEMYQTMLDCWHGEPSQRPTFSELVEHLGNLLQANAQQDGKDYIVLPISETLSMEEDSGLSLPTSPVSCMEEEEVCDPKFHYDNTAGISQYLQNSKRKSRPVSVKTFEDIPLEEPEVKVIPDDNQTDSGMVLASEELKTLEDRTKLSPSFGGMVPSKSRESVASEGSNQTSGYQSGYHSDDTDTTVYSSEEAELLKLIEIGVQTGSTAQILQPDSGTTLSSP

The term IC50 denotes the midpoint of a concentration-inhibition curve. `Cc1c2c(nn1-c1ccccc1)-c1ccccc1C2=O`: in data set [1], the IC50 was above 100 µM. `C1=NC(n2nc(-c3ccccc3)cc2-c2ccccc2)NC1` (centres unmarked) gave an IC50 in data set [1] above 100 µM. As to `c1csc(-c2n[nH]c3c2Cc2ccccc2-3)c1`, the concentration for half-maximal inhibition (IC50) in data set [2] worked out at 2 µM.

What is called melting point is the temperature of the solid-liquid transition. As to `c1cncc(-c2n[nH]c3c2Cc2ccccc2-3)c1` [Example 1, 3-(3-Pyridyl)-1,4-dihydroindeno[1,2-c]pyrazole], the melting point was in the range of 223 to 224 °C. Regarding `c1csc(-c2n[nH]c3c2CCc2ccccc2-3)c1` [Example 3, 3-(2-Thienyl)-4,5-dihydro-1H-benz[g]indazole], the melting point is 206 to 208 °C. As for `COc1cccc(-c2n[nH]c3c2Cc2ccccc2-3)c1` [Example 5, 3-(3-methoxyphenyl)-1,4-dihydroindeno[1,2-c]pyrazole], the melting point is 172 to 174 °C.

Take `COc1ccc(-c2n[nH]c3c2Cc2ccccc2-3)cc1` [Example 6, 3-(4-methoxyphenyl)-1,4-dihydroindeno[1,2-c]pyrazole]: the melting point amounted to 247 °C. `Cc1ccc(-c2n[nH]c3c2Cc2ccccc2-3)cc1` [Example 7, 3-(p-tolyl)-1,4-dihydroindeno[1,2-c]pyrazole] yielded a melting point of 267 to 269 °C. On the same count and under the same terms, under `COc1ccc2c(c1)Cc1c(-c3cccs3)n[nH]c1-2` [Example 8, 6-methoxy-3-(2-thienyl)-1,4-dihydroindeno[1,2-c]pyrazole] stands 212 to 214 °C. `c1coc(-c2n[nH]c3c2Cc2ccccc2-3)c1` [Example 9, 3-(2-furyl)-1,4-dihydroindeno[1,2-c]pyrazole] had a melting point of 195 to 197 °C. In turn, `c1ccc2c(c1)Cc1c(-c3ccsc3)n[nH]c1-2` [Example 29, 3-(3-thienyl)-1,4-dihydroindeno[1,2-c]pyrazole] registered a melting point of 219 to 220 °C.
